Assay results taken from PubChem BioAssay AID298 (DTP/NCI, 2004).
Values joined by “and” are separate entries in the source; they are usually repeats but may differ in a detail not shown here. Identical values can stand only once. Inconclusive results are not listed.

System: MX-1 breast xenograft, intrarenal, nude mice, tumor weight
Experiment: NCI In Vivo Anticancer Drug Screen. Data for tumor model Human Mammary Carcinoma MX-1 Xenograft (intrarenal inoculation) in NU/NU BALB/C (nude) mice
Conditions: endpoint: mean tumor weight change, higher = larger tumour
In short: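 Efficacy in vivo: tumor measurement or survival of treated animals divided by that of vehicle-dosed controls.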

[1] = dose: 150.0 mg/kg/injection, schedule: Q04DX003 (ip), vehicle: saline with Tween-80
[2] = dose: 300.0 mg/kg/injection, schedule: Q04DX003 (ip), vehicle: saline with Tween-80
[3] = dose: 50.0 mg/kg/injection, schedule: Q04DX003 (ip), vehicle: saline with Tween-80
[4] = dose: 100.0 mg/kg/injection, schedule: Q04DX003 (ip), vehicle: saline with Tween-80
[5] = dose: 200.0 mg/kg/injection, schedule: Q04DX003 (ip), vehicle: saline with Tween-80
[6] = dose: 400.0 mg/kg/injection, schedule: Q04DX003 (ip), vehicle: saline with Tween-80

Which results are given for C/C=C(\C)c1cc(=O)c2c(C)cc3c(c2o1)C(=O)c1c(O)c(C2CC(C)(N(C)C)C(OC(C)=O)C(C)O2)cc(C2CC(N(C)C)C(O)C(C)O2)c1C3=O (configuration not stated)?
T/C (dose: 2.5 mg/kg/injection, schedule: Q04DX003 (sc), vehicle: saline): 91 % of control; T/C (dose: 40.0 mg/kg/injection, schedule: Q04DX003 (sc), vehicle: saline): 39 % of control and 43 % of control

CC(=O)O[C@H]1C(=O)[C@@]2(C)C(C(OC(=O)c3ccccc3)[C@]3(O)C[C@H](OC(=O)C(OC(=O)CN(C)C)C(NC(=O)c4ccccc4)c4ccccc4)C(C)=C1C3(C)C)C1(OC(C)=O)COC1C[C@@H]2O (some centres not stated) was tested. Which T/C (dose: 1.88 mg/kg/injection, schedule: Q01DX009 (ip), vehicle: water) did it give?
Its T/C is 64 % of control.

What about the T/C (dose: 3.75 mg/kg/injection, schedule: Q01DX009 (ip), vehicle: water) of the same molecule?
The T/C was 5 % of control.

And the T/C (dose: 5.9 mg/kg/injection, schedule: Q01DX009 (ip), vehicle: water)?
The T/C was -78 % of control.

What about the T/C (dose: 7.5 mg/kg/injection, schedule: Q01DX009 (ip), vehicle: water) of the same molecule?
Its T/C is 4 % of control.

And the T/C (dose: 8.9 mg/kg/injection, schedule: Q01DX009 (ip), vehicle: water)?
The T/C was -53 % of control.

What about the T/C (dose: 13.3 mg/kg/injection, schedule: Q01DX009 (ip), vehicle: water) of the same molecule?
The T/C was -100 % of control.

And the T/C (dose: 15.0 mg/kg/injection, schedule: Q01DX009 (ip), vehicle: water)?
The T/C was -80 % of control.

And the T/C (dose: 20.0 mg/kg/injection, schedule: Q01DX009 (ip), vehicle: water)?
Its T/C is -100 % of control.

For CO[C@H](/C(C)=C/C=C/C(C)=C/c1coc(C)n1)[C@H](C)[C@H]1C[C@@H](O)[C@@]2(C)O[C@H]2/C=C/[C@@H](C)[C@@H]2C[C@@H](CC(=O)O2)C[C@H]2O[C@@H]2C(=O)O1, which T/C (dose: 0.13 mg/kg/injection, schedule: Q04DX003 (ip), vehicle: other) is on record?
Its T/C is 62 % of control.

What about the T/C (dose: 0.2 mg/kg/injection, schedule: Q04DX003 (ip), vehicle: other) of the same molecule?
The T/C was 67 % of control.

And the T/C (dose: 0.25 mg/kg/injection, schedule: Q04DX003 (ip), vehicle: Klucel (hydroxypropylcellulose) (HPC))?
Its T/C is 10 % of control.

And the T/C (dose: 0.25 mg/kg/injection, schedule: Q04DX003 (sc), vehicle: Klucel (hydroxypropylcellulose) (HPC))?
Its T/C is 46 % of control and 55 % of control and 63 % of control.

What about the T/C (dose: 0.3 mg/kg/injection, schedule: Q04DX003 (ip), vehicle: other) of the same molecule?
The T/C was 55 % of control.

And the T/C (dose: 0.44 mg/kg/injection, schedule: Q04DX003 (ip), vehicle: other)?
Its T/C is 27 % of control.

And the T/C (dose: 0.5 mg/kg/injection, schedule: Q04DX003 (ip), vehicle: Klucel (hydroxypropylcellulose) (HPC))?
Its T/C is 7 % of control.

What about the T/C (dose: 0.5 mg/kg/injection, schedule: Q04DX003 (sc), vehicle: Klucel (hydroxypropylcellulose) (HPC)) of the same molecule?
The T/C was 35 % of control and 36 % of control and 41 % of control.

What about the T/C (dose: 1.0 mg/kg/injection, schedule: Q04DX003 (ip), vehicle: Klucel (hydroxypropylcellulose) (HPC)) of the same molecule?
Its T/C is 5 % of control.

And the T/C (dose: 1.0 mg/kg/injection, schedule: Q04DX003 (sc), vehicle: Klucel (hydroxypropylcellulose) (HPC))?
The T/C was 4 % of control and 19 % of control.

What does the source list for C#CCNC1=C(C)C(=O)C2=C(C1=O)[C@H](COC(N)=O)[C@]1(OC)[C@@H]3N[C@@H]3CN21?
T/C (dose: 1.85 mg/kg/injection, schedule: Q04DX003 (ip), vehicle: distilled water + Tween-80): 48 % of control; T/C (dose: 1.88 mg/kg/injection, schedule: Q04DX003 (ip), vehicle: distilled water + Tween-80): 97 % of control; T/C (dose: 3.75 mg/kg/injection, schedule: Q04DX003 (ip), vehicle: distilled water + Tween-80): 49 % of control and 55 % of control

With CCOC(=O)/C=C/C(=O)N1CCN(C(=O)/C=C/C(=O)OCC)C(C)C1 (configuration not stated) as the molecule, how does the T/C (dose: 150.0 mg/kg/injection, schedule: Q04DX003 (ip), vehicle: Klucel (hydroxypropylcellulose) (HPC)) read?
The T/C was 103 % of control.

And the T/C (dose: 300.0 mg/kg/injection, schedule: Q04DX003 (ip), vehicle: Klucel (hydroxypropylcellulose) (HPC))?
The T/C was 83 % of control.

What about the T/C (dose: 600.0 mg/kg/injection, schedule: Q04DX003 (ip), vehicle: Klucel (hydroxypropylcellulose) (HPC)) of the same molecule?
Its T/C is 77 % of control.

For COc1cc2cc(c1Cl)N(C)C(=O)C[C@H](OC(=O)[C@H](C)N(C)C(C)=O)[C@]1(C)O[C@H]1[C@H](C)[C@@H]1C[C@@](O)(NC(=O)O1)[C@H](OC)C=C/C=C(\C)C2, which T/C (dose: 12.5 micrograms/kg/injection, schedule: Q01DX010 (sc), vehicle: Klucel (hydroxypropylcellulose) (HPC)) is on record?
Its T/C is 152 % of control.

What about the T/C (dose: 25.0 micrograms/kg/injection, schedule: Q01DX010 (sc), vehicle: Klucel (hydroxypropylcellulose) (HPC)) of the same molecule?
The T/C was 73 % of control.

What about the T/C (dose: 50.0 micrograms/kg/injection, schedule: Q01DX010 (sc), vehicle: Klucel (hydroxypropylcellulose) (HPC)) of the same molecule?
Its T/C is 75 % of control.

And the T/C (dose: 100.0 micrograms/kg/injection, schedule: Q01DX010 (sc), vehicle: Klucel (hydroxypropylcellulose) (HPC))?
Its T/C is 14 % of control.

And the T/C (dose: 200.0 micrograms/kg/injection, schedule: Q01DX010 (sc), vehicle: Klucel (hydroxypropylcellulose) (HPC))?
The T/C was -78 % of control.

What does the source list for CNC(=O)Sc1ccc(C)c(N(C)C)c1?
T/C [1]: 92 % of control; T/C [2]: 44 % of control

How did the T/C (dose: 50.0 mg/kg/injection, schedule: Q04DX003 (sc), vehicle: saline) turn out when Nc1ccn([C@@H](C=O)O[C@@H](C=O)CO)c(=O)n1 was run?
Its T/C is 70 % of control.

What about the T/C (dose: 100.0 mg/kg/injection, schedule: Q04DX003 (sc), vehicle: saline) of the same molecule?
The T/C was 14 % of control.

What about the T/C (dose: 200.0 mg/kg/injection, schedule: Q04DX003 (sc), vehicle: saline) of the same molecule?
The T/C was -85 % of control.

What does the source list for O=c1c(O)c(-c2cc(O)c(O)c(O)c2)oc2cc(O)cc(O)c12?
T/C (dose: 50.0 mg/kg/injection, schedule: Q04DX003 (sc), vehicle: saline with Tween-80): 95 % of control; T/C (dose: 100.0 mg/kg/injection, schedule: Q04DX003 (sc), vehicle: saline with Tween-80): 111 % of control; T/C (dose: 200.0 mg/kg/injection, schedule: Q04DX003 (sc), vehicle: saline with Tween-80): 115 % of control; T/C (dose: 400.0 mg/kg/injection, schedule: Q04DX003 (sc), vehicle: saline with Tween-80): 179 % of control

With CN(C)CCNc1ccc(CO)c2sc3ccc(O)cc3c(=O)c12 as the molecule, how does the T/C [3] read?
The T/C was 30 % of control.

What about the T/C [4] of the same molecule?
The T/C was 25 % of control and 26 % of control and 28 % of control.

What about the T/C [5] of the same molecule?
Its T/C is 6 % of control and 17 % of control and 28 % of control.

And the T/C [6]?
The T/C was 5 % of control and 10 % of control and 18 % of control.

For COc1cc2oc3c(C)c(=O)cc4oc(-c5ccccc5)cc(c2c2c1CCC(c1ccccc1)O2)c43 (configuration not stated), which T/C (dose: 7.0 mg/kg/injection, schedule: Q04DX003 (ip), vehicle: Klucel (hydroxypropylcellulose) (HPC)) is on record?
The T/C was 88 % of control.

What about the T/C (dose: 14.0 mg/kg/injection, schedule: Q04DX003 (ip), vehicle: Klucel (hydroxypropylcellulose) (HPC)) of the same molecule?
Its T/C is 82 % of control.

What about the T/C (dose: 37.5 mg/kg/injection, schedule: Q04DX003 (ip), vehicle: saline with Tween-80) of the same molecule?
The T/C was 111 % of control.

What about the T/C (dose: 56.0 mg/kg/injection, schedule: Q04DX003 (ip), vehicle: Klucel (hydroxypropylcellulose) (HPC)) of the same molecule?
Its T/C is 107 % of control.

And the T/C (dose: 75.0 mg/kg/injection, schedule: Q04DX003 (ip), vehicle: saline with Tween-80)?
Its T/C is 77 % of control.

What about the T/C [1] of the same molecule?
Its T/C is 117 % of control.

And the T/C [2]?
The T/C was 52 % of control.

With NC(=S)c1ncn(C2OC(COC=O)C(OC=O)C2OC=O)c1NC=O (configuration not stated) as the molecule, how does the T/C [3] read?
The T/C was 105 % of control.

And the T/C (dose: 100.0 mg/kg/injection, schedule: Q04DX003 (ip), vehicle: Klucel (hydroxypropylcellulose) (HPC))?
The T/C was 47 % of control.

And the T/C [4]?
The T/C was 103 % of control.

And the T/C (dose: 200.0 mg/kg/injection, schedule: Q04DX003 (ip), vehicle: Klucel (hydroxypropylcellulose) (HPC))?
Its T/C is 31 % of control.

What about the T/C [5] of the same molecule?
The T/C was 65 % of control.

And the T/C (dose: 400.0 mg/kg/injection, schedule: Q04DX003 (ip), vehicle: Klucel (hydroxypropylcellulose) (HPC))?
The T/C was 48 % of control.

What about the T/C [6] of the same molecule?
Its T/C is 9 % of control.

For Cc1cc(N/N=C/c2ccccn2)nc2ccccc12, which T/C (dose: 300.0 mg/kg/injection, schedule: Q04DX003 (sc), vehicle: Klucel (hydroxypropylcellulose) (HPC)) is on record?
The T/C was 74 % of control.

What about the T/C (dose: 600.0 mg/kg/injection, schedule: Q04DX003 (sc), vehicle: Klucel (hydroxypropylcellulose) (HPC)) of the same molecule?
The T/C was 73 % of control.

And the T/C (dose: 1200.0 mg/kg/injection, schedule: Q04DX003 (sc), vehicle: Klucel (hydroxypropylcellulose) (HPC))?
The T/C was 43 % of control.

What about the T/C (dose: 2400.0 mg/kg/injection, schedule: Q04DX003 (sc), vehicle: Klucel (hydroxypropylcellulose) (HPC)) of the same molecule?
The T/C was 68 % of control.

How did the T/C [1] turn out when N=C(N)c1ccc(N=NNc2ccc(C(=N)N)cc2)cc1 was run?
The T/C was 83 % of control.

What does the source list for Cc1cc2c(=O)cc(-c3ccccc3)oc2c(C(=O)O)c1C?
T/C (dose: 125.0 mg/kg/injection, schedule: Q04DX003 (ip), vehicle: saline with Tween-80): 109 % of control; T/C (dose: 250.0 mg/kg/injection, schedule: Q04DX003 (ip), vehicle: saline with Tween-80): 99 % of control

What does the source list for COc1oc(C2C/C(=C/C(C)=C/C(C)=C/C(C)=C/c3ccc([N+](=O)[O-])cc3)CO2)c(C)c(=O)c1C (configuration not stated)?
T/C (dose: 1.0 mg/kg/injection, schedule: Q04DX003 (ip), vehicle: saline): 106 % of control; T/C (dose: 2.0 mg/kg/injection, schedule: Q04DX003 (ip), vehicle: saline): 48 % of control

For O=C(NC(Cc1ccc(I)cc1)C(=O)O)c1ccc(Br)cc1 (configuration not stated), which T/C (dose: 37.5 mg/kg/injection, schedule: Q04DX003 (ip), vehicle: sodium bicarbonate) is on record?
Its T/C is 92 % of control.

And the T/C (dose: 150.0 mg/kg/injection, schedule: Q04DX003 (ip), vehicle: sodium bicarbonate)?
Its T/C is 87 % of control and 112 % of control.

And the T/C (dose: 300.0 mg/kg/injection, schedule: Q04DX003 (ip), vehicle: sodium bicarbonate)?
The T/C was 78 % of control.

Which results are given for Nc1ccc2ccc(N)cc2c1?
T/C [1]: 75 % of control; T/C [2]: 65 % of control
